Test results: patent EP2265631B1, “NOVEL ANTIMICROBIAL PEPTIDES AND THEIR APPLICATION” (Ustav Organicke Chemie a Biochemie Akademie Ved Ceske …, priority 2008, dated 2009)
Ends that are not written are not given here. Peptide text beside a SMILES is read from it.

How the values were obtained:
Format in all cases: cell-based
[1] = tested on: rat red blood cells; experiment: Determination of hemolytic activity; settings: rat red blood cells (5%), 1 h at 37°C, peptides 1-200 µM
Description: The peptides in the concentration (1-200 µM) were incubated with rat red blood cells (5%) for 1 h at 37°C in a physiological solution at a final volume of 0.2 ml. The samples were then centrifuged for 5 min at 250 g, and the absorbance of the supernatant was determined at 540 nm. Supernatants of red blood cells suspended in physiological solution and in 0.2% TRITON X100 in physiological solution served as controls for zero hemolysis (blank) and 100% hemolysis, respectively. Table 3. Antimicrobial and hemolytic activity of melectin (I) and its synthetic analogs of formulas II/1 to II/18

[2] = tested on: Pseudomonnas aeruginosa; experiment: Determination of antimicrobial activity (MIC, bacterial growth in LB broth); settings: minimum inhibitory concentration (MIC) per method, 37°C, 20 h, read-out: Antimicrobial activity IC50 [µM] P.a.
Description: (§1) Antimicrobial activity was determined as a quantitative minimum inhibitory concentration (MIC) by observing bacterial growth in the presence of different concentrations of tested peptides. Mid-exponential phase bacteria were added to the solutions of the tested antimicrobial peptide at different concentrations (0.5 to 100 µM) in LB broth in multi-well plates. The plates were incubated at 37°C for 20 h while being continuously shaken in a Bioscreen C instrument (Finland). The absorbance was measured at 540 nm every 15 min and each peptide was tested at least 3 times in duplicate. 1.2.10^3 - 7.5.10^3 CFU of bacteria was routinely used in the experiments. Tetracycline in a concentration range of 0.1 - 50 µM was tested as a standard.

[3] = tested on: Escherichia coli; experiment: as above; settings: minimum inhibitory concentration (MIC) per method, 37°C, 20 h, read-out: Antimicrobial activity IC50 [µM] E. c.
Description: as §1

[4] = tested on: Bacilus subtilis; experiment: as above; settings: minimum inhibitory concentration (MIC) per method, 37°C, 20 h, read-out: Antimicrobial activity IC50 [µM] B.s.
Description: as §1

[5] = tested on: Staphylococcus aureus; experiment: as above; settings: minimum inhibitory concentration (MIC) per method, 37°C, 20 h, read-out: Antimicrobial activity IC50 [µM] S.a.
Description: as §1

## H-GFLSILKKVLPKVLAHLK-NH2 [II/5, H-Gly-Phe-Leu-Ser-Ile-Leu-Lys-Lys-Val-Leu-Pro-Lys-Val-Leu-Ala-His-Leu-Lys-NH2]
[1]
  Hemolytic activity: 43.7 µM
[2]
  IC50: 20 µM
[3]
  IC50: 1.2 µM
[4]
  IC50: 0.8 µM
[5]
  IC50: 5 µM

## GFLSILKKVLGKVMAHMK-NH2 [II/3, H-Gly-Phe-Leu-Ser-lle-Leu-Lys-Lys-Val-Leu-Gly-Lys-Val-Met-Ala-His-Met-Lys-NH2]
[1]
  Hemolytic activity: 41.4 µM
[2]
  IC50: 14.4 µM
[3]
  IC50: 1.8 µM
[4]
  IC50: 1.3 µM
[5]
  IC50: 4.3 µM

## H-GLSILKKVLKKVMAHMK-NH2 [II/17, H-Gly-...-Leu-Ser-Ile-Leu-Lys-Lys-Val-Leu-Lys-Lys-Val-Met-Ala-His-Met-Lys-NH2]
[1]
  Hemolytic activity: »200 µM

## H-GFLSILKKVL-NH2 [II/13, H-Gly-Phe-Leu-Ser-Ile-Leu-Lys-Lys-Val-Leu-NH2]
[1]
  Hemolytic activity: >100 µM
[2]
  IC50: 58.7 µM
[3]
  IC50: 9.1 µM
[4]
  IC50: 2.9 µM
[5]
  IC50: 10.9 µM

## GFLSILKKVLKVMAHMK-NH2 [II/8, H-Gly-Phe-Leu-Ser-Ile-Leu-Lys-Lys-Val-Leu-... -Lys-Val-Met-Ala-His-Met-Lys-NH2]
[1]
  Hemolytic activity: 22.9 µM
[2]
  IC50: 27.5 µM
[3]
  IC50: 1.8 µM
[4]
  IC50: 0.9 µM
[5]
  IC50: 5 µM

## H-GFLSILKKVGPKVMAHMK-NH2 [II/14, H-Gly-Phe-Leu-Ser-Ile-Leu-Lys-Lys-Val-Gly-Pro-Lys-Val-Met-Ala-His-Met-Lys-NH2]
[1]
  Hemolytic activity: »200 µM
[2]
  IC50: 80 µM
[3]
  IC50: 22.5 µM
[4]
  IC50: 1.4 µM
[5]
  IC50: 80 µM

## CCCC[C@H](NC(=O)[C@H](Cc1c[nH]cn1)NC(=O)[C@H](C)NC(=O)[C@H](CCCC)NC(=O)[C@@H](NC(=O)[C@H](CCCCN)NC(=O)[C@@H]1CCCN1C(=O)[C@H](CC(C)C)NC(=O)[C@@H](NC(=O)[C@H](CCCCN)NC(=O)[C@H](CCCCN)NC(=O)[C@H](CC(C)C)NC(=O)[C@@H](NC(=O)[C@H](CO)NC(=O)[C@H](CC(C)C)NC(=O)[C@H](Cc1ccccc1)NC(=O)CN)[C@@H](C)CC)C(C)C)C(C)C)C(=O)N[C@@H](CCCCN)C(N)=O [II/18, H-Gly-Phe-Leu-Ser-Ile-Leu-Lys-Lys-Val-Leu-Pro-Lys-Val-Nle-Ala-His-Nle-Lys-NH2] (HELM PEPTIDE1{G.F.L.S.I.L.K.K.V.L.P.K.V.[Nle].A.H.[Nle].K.[am]}$$$$V2.0)
[2]
  IC50: 17.3 µM
[3]
  IC50: 0.75 µM
[4]
  IC50: 0.2 µM
[5]
  IC50: 2.5 µM

## H-GFLSILKKVLPKVMAKMK-NH2 [II/4, H-Gly-Phe-Leu-Ser-Ile-Leu-Lys-Lys-Val-Leu-Pro-Lys-Val-Met-Ala-Lys-Met-Lys-NH2]
[1]
  Hemolytic activity: >100 µM
[2]
  IC50: 33.6 µM
[3]
  IC50: 2.1 µM
[4]
  IC50: 0.7 µM
[5]
  IC50: 16.8 µM

## H-FLSILKKVLPKVMAHMK-NH2 [II/9, H-Phe-Leu-Ser-Ile-Leu-Lys-Lys-Val-Leu-Pro-Lys-Val-Met-Ala-His-Met-Lys-NH2]
[1]
  Hemolytic activity: >200 µM
[2]
  IC50: 62.1 µM
[3]
  IC50: 9.08 µM
[4]
  IC50: 1.2 µM
[5]
  IC50: 38.8 µM

## CCCC[C@H](NC(=O)[C@H](Cc1cnc[nH]1)NC(=O)[C@H](C)NC(=O)[C@H](CCCC)NC(=O)[C@@H](NC(=O)[C@H](CCCCN)NC(=O)[C@@H]1CCCN1C(=O)[C@H](CC(C)C)NC(=O)[C@@H](NC(=O)[C@H](CCCCN)NC(=O)[C@H](CCCCN)NC(=O)[C@H](CC(C)C)NC(=O)[C@@H](NC(=O)[C@H](CO)NC(=O)[C@H](CC(C)C)NC(=O)[C@H](Cc1ccccc1)NC(=O)CN)[C@@H](C)CC)C(C)C)C(C)C)C(=O)N[C@@H](CCCCN)C(N)=O [II/18, H-Gly-Phe-Leu-Ser-Ile-Leu-Lys-Lys-Val-Leu-Pro-Lys-Val-Nle-Ala-His-Nle-Lys-NH2] (HELM PEPTIDE1{G.F.L.S.I.L.K.K.V.L.P.K.V.[Nle].A.H.[Nle].K.[am]}$$$$V2.0)
[1]
  Hemolytic activity: 50 µM
